According to ChEMBL document CHEMBL1201862, “PubChem BioAssay data set” (2004):
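Cultured in 96-well plates, cells were exposed to test compound for 48 hours across five concentrations. GI50: concentration for 50% inhibition of growth.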 Active and inactive are the calls of the source. Cut-off read from the data, not from the text of the source: active = GI50 up to about 1.1 µM and inactive = higher.

How the values were obtained:
Assay in all cases: NCI-60 cell line screen, 48 h
CAKI-1 = test system: CAKI-1
Hs-578T = test system: Hs-578T
NCI-H522 = test system: NCI-H522
HOP-92 = test system: HOP-92
COLO 205 = test system: COLO 205
SK-MEL-28 = test system: SK-MEL-28
SF-539 = test system: SF-539
UACC-257 = test system: UACC-257
A549 = test system: A549
EKVX = test system: EKVX
HOP-62 = test system: HOP-62
SNB-75 = test system: SNB-75
HT-29 = test system: HT-29
HL-60 = test system: HL-60
Malme-3M = test system: Malme-3M
LOX IMVI = test system: LOX IMVI
DU-145 = test system: DU-145
IGROV-1 = test system: IGROV-1
SK-OV-3 = test system: SK-OV-3
OVCAR-5 = test system: OVCAR-5

Measured: GI50

COc1cc2c[n+](C)c3c(c2cc1OC)Cc1cc2c(cc1-3)OCO2
inactive: CAKI-1 > 100 µM | Hs-578T > 100 µM | NCI-H522 52.4 µM | HOP-92 > 100 µM | COLO 205 > 100 µM | SK-MEL-28 > 100 µM | SF-539 > 100 µM | UACC-257 > 100 µM | A549 > 100 µM | EKVX > 100 µM | HOP-62 > 100 µM | SNB-75 > 100 µM | HT-29 > 100 µM | HL-60 > 100 µM | Malme-3M > 100 µM | LOX IMVI > 100 µM | DU-145 > 100 µM | IGROV-1 > 100 µM | SK-OV-3 > 100 µM | OVCAR-5 > 100 µM

CSc1ccc2c(c1)c(CCN)c(C)n2Cc1ccccc1Cl
inactive: CAKI-1 1.95 µM | Hs-578T 1.67 µM | NCI-H522 1.5 µM | HOP-92 1.26 µM | COLO 205 1.67 µM | SK-MEL-28 1.75 µM | SF-539 1.37 µM | UACC-257 1.73 µM | A549 1.68 µM | EKVX 1.62 µM | HOP-62 1.18 µM | SNB-75 1.61 µM | HT-29 1.6 µM | HL-60 1.56 µM | Malme-3M 1.69 µM | LOX IMVI 1.83 µM | DU-145 1.66 µM | IGROV-1 1.61 µM | SK-OV-3 2 µM | OVCAR-5 1.85 µM

COc1ccc2c(c1)C(N)=C(c1ccccc1)C2=O
inactive: CAKI-1 > 100 µM | Hs-578T 11.4 µM | NCI-H522 > 100 µM | HOP-92 > 100 µM | COLO 205 > 100 µM | SK-MEL-28 > 100 µM | SF-539 > 100 µM | UACC-257 > 100 µM | A549 64.6 µM | EKVX > 100 µM | HOP-62 > 100 µM | SNB-75 12.6 µM | HT-29 > 100 µM | HL-60 > 100 µM | Malme-3M > 100 µM | LOX IMVI > 100 µM | DU-145 > 100 µM | IGROV-1 63.5 µM | SK-OV-3 49 µM | OVCAR-5 > 100 µM

CC(CO)CCNc1ncnc2c1ncn2CCC(=O)O (stereo not given)
inactive: CAKI-1 > 100 µM | Hs-578T > 100 µM | NCI-H522 > 100 µM | HOP-92 > 100 µM | COLO 205 > 100 µM | SK-MEL-28 > 100 µM | SF-539 > 100 µM | UACC-257 > 100 µM | A549 > 100 µM | EKVX > 100 µM | HOP-62 > 100 µM | SNB-75 > 100 µM | HT-29 > 100 µM | HL-60 > 100 µM | Malme-3M > 100 µM | LOX IMVI > 100 µM | DU-145 > 100 µM | IGROV-1 > 100 µM | SK-OV-3 > 100 µM | OVCAR-5 > 100 µM

CCCCCCCCCCCCCCCCNc1ccc2c(c1)OCCOCCOCCOCCO2
inactive: CAKI-1 4 µM | Hs-578T 2.82 µM | NCI-H522 2.33 µM | HOP-92 2.37 µM | COLO 205 1.75 µM | SK-MEL-28 6.28 µM | SF-539 2.32 µM | UACC-257 2.56 µM | A549 3.78 µM | EKVX 4.03 µM | HOP-62 2.51 µM | SNB-75 3.92 µM | HT-29 2.75 µM | HL-60 2.07 µM | Malme-3M 3.56 µM | LOX IMVI 2.24 µM | DU-145 4.24 µM | IGROV-1 2.91 µM | SK-OV-3 3.4 µM | OVCAR-5 3.61 µM

COc1ccc2nc3ccc(OC)cc3c(SCCCl)c2c1
inactive: CAKI-1 3.82 µM | Hs-578T 5.07 µM | NCI-H522 3.03 µM | HOP-92 21.6 µM | COLO 205 > 39.1 µM | SK-MEL-28 31.7 µM | SF-539 7.21 µM | UACC-257 > 46.1 µM | A549 39.2 µM | EKVX > 49.9 µM | HOP-62 18.1 µM | SNB-75 13.7 µM | HT-29 8.28 µM | HL-60 3.28 µM | Malme-3M 9.57 µM | LOX IMVI 5.98 µM | DU-145 21 µM | IGROV-1 5.09 µM | SK-OV-3 > 74 µM | OVCAR-5 24.8 µM

COc1cc(C2C3=C(COC3=O)OC(C)(C)Oc3cc4c(cc32)OCO4)cc(OC)c1OC (stereo not given)
active: Hs-578T 0.301 µM | NCI-H522 0.278 µM | COLO 205 0.236 µM | SK-MEL-28 0.296 µM | SF-539 0.212 µM | A549 0.344 µM | EKVX 0.366 µM | HOP-62 0.509 µM | SNB-75 0.253 µM | HT-29 0.258 µM | HL-60 0.236 µM | LOX IMVI 0.331 µM | DU-145 0.34 µM | IGROV-1 0.521 µM | SK-OV-3 0.476 µM
inactive: CAKI-1 2.27 µM | HOP-92 3.58 µM | UACC-257 1.17 µM | Malme-3M > 37.8 µM | OVCAR-5 3.72 µM

Nc1nc(N)c2c(n1)NC(c1ccccc1)CC(/C=C/c1ccc(Cl)cc1)=N2 (stereo not given)
inactive: CAKI-1 7.87 µM | Hs-578T 2.95 µM | NCI-H522 1.76 µM | HOP-92 3.94 µM | COLO 205 2.7 µM | SK-MEL-28 13.5 µM | SF-539 15.5 µM | UACC-257 2.25 µM | A549 12.2 µM | EKVX 4.32 µM | HOP-62 14.8 µM | SNB-75 18.5 µM | HT-29 3.95 µM | HL-60 10.2 µM | Malme-3M 13.5 µM | LOX IMVI 3.49 µM | DU-145 9.23 µM | IGROV-1 2.72 µM | SK-OV-3 15.7 µM | OVCAR-5 17 µM

O=[N+]([O-])c1ccc(Cl)c(/C=N/C23CC4CC(CC(C4)C2)C3)c1
inactive: CAKI-1 > 10 µM | Hs-578T > 10 µM | NCI-H522 > 10 µM | HOP-92 > 10 µM | COLO 205 > 10 µM | SK-MEL-28 > 10 µM | SF-539 5.33 µM | UACC-257 > 10 µM | A549 > 10 µM | EKVX > 10 µM | HOP-62 > 10 µM | SNB-75 > 10 µM | HT-29 > 10 µM | HL-60 2.05 µM | Malme-3M > 10 µM | LOX IMVI > 9.12 µM | DU-145 > 10 µM | IGROV-1 > 10 µM | SK-OV-3 > 10 µM | OVCAR-5 > 10 µM

COc1cc2cc(C(=O)N3CC(CCl)c4c3cc(NC(=O)C(C)(C)c3ccccc3[N+](=O)[O-])c3ccccc43)[nH]c2c(OC)c1OC (stereo not given)
active: CAKI-1 0.0687 µM | A549 0.675 µM | HOP-62 0.187 µM | LOX IMVI 0.993 µM | DU-145 0.147 µM
inactive: Hs-578T 9.33 µM | NCI-H522 1.99 µM | HOP-92 2.38 µM | COLO 205 5.43 µM | SK-MEL-28 7.16 µM | SF-539 4.78 µM | UACC-257 6.65 µM | EKVX 11.7 µM | SNB-75 3.76 µM | HT-29 1.6 µM | HL-60 1.36 µM | Malme-3M 7.31 µM | IGROV-1 1.35 µM | SK-OV-3 2.75 µM | OVCAR-5 2.77 µM

COc1cc(/C=N\O)nc(-c2ccccn2)c1
inactive: Hs-578T 47.2 µM | HOP-92 1.44 µM | UACC-257 2.4 µM | SNB-75 1.28 µM | OVCAR-5 3.08 µM
active: CAKI-1 0.303 µM | NCI-H522 0.129 µM | COLO 205 0.188 µM | SK-MEL-28 0.729 µM | SF-539 0.575 µM | A549 0.344 µM | EKVX 0.195 µM | HOP-62 0.137 µM | HT-29 0.569 µM | HL-60 0.124 µM | Malme-3M 0.741 µM | LOX IMVI 0.221 µM | DU-145 0.236 µM | IGROV-1 0.202 µM | SK-OV-3 0.45 µM

Cc1cnc2nc(-c3ccc(F)cc3)cc(O)c2c1
inactive: CAKI-1 50.9 µM | Hs-578T 24.1 µM | NCI-H522 13 µM | HOP-92 33.2 µM | COLO 205 7.64 µM | SK-MEL-28 > 87.1 µM | SF-539 26.6 µM | UACC-257 > 75.2 µM | A549 42.4 µM | EKVX 30.9 µM | HOP-62 37.5 µM | SNB-75 20.1 µM | HT-29 26.4 µM | HL-60 3.26 µM | Malme-3M 33.9 µM | LOX IMVI 40.4 µM | DU-145 43 µM | IGROV-1 29.2 µM | SK-OV-3 21.6 µM | OVCAR-5 51.4 µM

Nc1nc(N)c2nc(CNc3ccc(C(=O)O)cc3)[nH]c2n1
inactive: CAKI-1 > 100 µM | Hs-578T > 100 µM | NCI-H522 > 100 µM | HOP-92 > 100 µM | COLO 205 > 100 µM | SK-MEL-28 > 100 µM | SF-539 > 100 µM | UACC-257 > 100 µM | A549 > 100 µM | EKVX > 100 µM | HOP-62 > 100 µM | SNB-75 > 100 µM | HT-29 > 100 µM | HL-60 > 100 µM | Malme-3M > 100 µM | LOX IMVI > 100 µM | DU-145 > 100 µM | IGROV-1 > 100 µM | SK-OV-3 > 100 µM | OVCAR-5 > 100 µM

COC(=O)c1ccccc1C1CN=NC12Cc1c(C)cc(C)cc1C2=O (stereo not given)
inactive: CAKI-1 > 100 µM | Hs-578T > 100 µM | NCI-H522 8.34 µM | HOP-92 > 100 µM | COLO 205 > 100 µM | SK-MEL-28 > 100 µM | SF-539 > 100 µM | UACC-257 > 100 µM | A549 > 100 µM | EKVX > 100 µM | HOP-62 > 100 µM | SNB-75 58.2 µM | HT-29 > 100 µM | HL-60 > 100 µM | Malme-3M > 100 µM | LOX IMVI > 100 µM | DU-145 > 100 µM | IGROV-1 > 100 µM | SK-OV-3 > 100 µM | OVCAR-5 > 100 µM
